Assay results as given in ChEMBL document CHEMBL1132395, “Inhibition of herpes proteases and antiviral activity of 2-substituted thieno[2,3-d]oxazinones” (Bioorg Med Chem Lett, 1999).
Active and inactive are the calls of the source. No cut-off for these calls is given here.

Assays:
[1] = target: T1, Capsid scaffolding protein (Human herpesvirus 2 (strain HG52) (HHV-2) (Human herpes simplex virus2), UniProt P89449); test: Inhibitory activity against herpes simplex virus type 2 (HSV-2) protease was determined using quenched fluorescence assay
T1 sequence (P89449 whole entry): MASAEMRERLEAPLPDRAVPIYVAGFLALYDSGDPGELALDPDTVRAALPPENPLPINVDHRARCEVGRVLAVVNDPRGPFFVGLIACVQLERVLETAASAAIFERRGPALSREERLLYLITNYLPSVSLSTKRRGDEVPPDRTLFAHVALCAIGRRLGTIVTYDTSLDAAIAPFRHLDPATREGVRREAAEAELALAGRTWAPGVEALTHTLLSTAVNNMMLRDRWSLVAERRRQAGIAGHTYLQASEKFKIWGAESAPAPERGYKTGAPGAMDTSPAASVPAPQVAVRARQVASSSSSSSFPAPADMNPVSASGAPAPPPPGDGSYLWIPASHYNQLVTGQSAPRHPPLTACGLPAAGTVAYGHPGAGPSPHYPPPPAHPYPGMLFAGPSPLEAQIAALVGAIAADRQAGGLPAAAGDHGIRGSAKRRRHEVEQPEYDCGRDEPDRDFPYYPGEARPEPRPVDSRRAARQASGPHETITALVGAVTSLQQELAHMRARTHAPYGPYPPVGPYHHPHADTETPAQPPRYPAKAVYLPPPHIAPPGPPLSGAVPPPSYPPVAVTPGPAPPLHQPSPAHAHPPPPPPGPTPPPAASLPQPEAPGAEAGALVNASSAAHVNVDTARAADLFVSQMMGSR

[2] = test system: MRC5; test: Cytotoxicity by using MRC-5 cell culture assay (XTT); assay type: functional; conditions: Homo sapiens, read-out: TC50 (the source's name)
[3] = test system: Human alphaherpesvirus 2; test: Inactivation rate against herpes simplex type 2 (HSV-2) was determined; assay type: functional
[4] = test system: Human alphaherpesvirus 2; test: Cytotoxicity in herpes simplex virus type 2 (HSV-2); assay type: functional
[5] = test system: Human alphaherpesvirus 2; test: Cytotoxicity against herpes simplex virus type 2 (HSV-2) infected cells by pulse chase (PC) assay; assay type: functional
[6] = test system: Human alphaherpesvirus 3; test: Inactivation rate against Varicella Zoster Virus (VZV) was determined; assay type: functional
[7] = test system: Cytomegalovirus; test: Inhibitory activity against cytomegalovirus (CMV) herpes was determined using quenched fluorescence assay; assay type: functional, organism-based; conditions: Human betaherpesvirus 5
[8] = test system: Human alphaherpesvirus 2; test: Cytotoxicity against herpes simplex virus type 2 (HSV-2); assay type: functional
[9] = test system: Human alphaherpesvirus 2; test: Cytotoxicity in herpes simplex virus type 2 (HSV-2); NI= no inhibition; assay type: functional, organism-based
[10] = test system: Human alphaherpesvirus 2; test: Inhibitory activity against herpes simplex virus type 2 (HSV-2) herpes protease was determined using quenched fluorescence assay; assay type: functional, organism-based
[11] = test system: Cytomegalovirus; test: Inhibitory activity against cytomegalovirus (CMV) herpes protease was determined using quenched fluorescence assay; assay type: functional, organism-based; conditions: Human betaherpesvirus 5
[12] = test system: Cytomegalovirus; test: Inhibitory activity against cytomegalovirus (CMV) protease was determined using quenched fluorescence assay (IA=inactive up to 20 uM); assay type: functional, organism-based
[13] = test system: Human alphaherpesvirus 2; test: Inhibitory activity against herpes simplex virus type 2 (HSV-2) protease was determined using quenched fluorescence assay (IA=inactive up to 20 uM); assay type: functional, organism-based
[14] = test system: Varicella zoster virus protease (Varicella-zoster virus); test: Inhibitory activity against Varicella Zoster Virus (VZV) protease was determined using quenched fluorescence assay (IA=inactive up to 20 uM)

Cc1csc2nc([C@H](C)NC(=O)/C=C/c3ccccc3[N+](=O)[O-])oc(=O)c12
IC50 [1]: 720 nM

Cc1csc2nc([C@H](C)NC(=O)C=C(c3ccccc3)c3ccccc3)oc(=O)c12
IC50 [1]: 500 nM

Cc1csc2nc([C@H](C)NC(=O)/C=C/c3cc(Br)cs3)oc(=O)c12
IC50 [1]: 190 nM

Cc1csc2nc([C@H](C)NC(=O)/C=C/c3ccc(Br)o3)oc(=O)c12
IC50 [1]: 490 nM

Cc1csc2nc([C@H](C)NC(=O)/C=C/c3ccc([N+](=O)[O-])s3)oc(=O)c12
IC50 [1]: 570 nM

Cc1ccsc1/C=C/C(=O)N[C@@H](C)c1nc2scc(C)c2c(=O)o1
IC50 [1]: 330 nM

Cc1csc2nc([C@H](C)NC(=O)/C=C/c3ccc(Cl)s3)oc(=O)c12
IC50 [1]: 210 nM
CC50 [2]: 130000 nM
K obs / 1 [3]: 58000 M⁻¹ s⁻¹
PC50 [4]: 18 µM
TC50 [5]: >250000 nM
K obs / 1 [6]: 60000 M⁻¹ s⁻¹

Cc1csc2nc([C@H](C)NC(=O)/C=C/c3c(F)cccc3F)oc(=O)c12
IC50 [1]: 630 nM

Cc1csc2nc([C@H](C)NC(=O)/C=C/c3ccsc3)oc(=O)c12
IC50 [7]: 380 nM
IC50 [1]: 330 nM

Cc1csc2nc([C@H](C)NC(=O)/C=C/c3ccccn3)oc(=O)c12
IC50 [1]: 500 nM

Cc1csc2nc([C@H](C)NC(=O)/C=C/c3ccccc3Cl)oc(=O)c12
IC50 [1]: 610 nM

Cc1csc2nc([C@H](C)NC(=O)/C=C/c3ccsc3Br)oc(=O)c12
IC50 [1]: 200 nM

Cc1csc2nc([C@H](C)NC(=O)/C=C/c3ccccc3)oc(=O)c12
IC50 [1]: 300 nM
CC50 [2]: 56000 nM
K obs / 1 [3]: 65000 M⁻¹ s⁻¹
PC50 [8]: 7.5 µM
TC50 [5]: >250000 nM
K obs / 1 [6]: 44000 M⁻¹ s⁻¹

COc1cccc(OC)c1/C=C/C(=O)N[C@@H](C)c1nc2scc(C)c2c(=O)o1
IC50 [1]: 1300 nM

Cc1csc2nc([C@H](C)NC(=O)/C=C(\c3ccccc3)c3cccs3)oc(=O)c12
IC50 [1]: 260 nM

Cc1cc(/C=C/C(=O)N[C@@H](C)c2nc3scc(C)c3c(=O)o2)c(C)s1
IC50 [1]: 190 nM
CC50 [2]: 180000 nM
K obs / 1 [3]: 53000 M⁻¹ s⁻¹
PC50 [4]: 12 µM
TC50 [5]: 130000 nM
k obs / 1 [6]: 76000 M⁻¹ s⁻¹

Cc1csc2nc([C@H](C)NC(=O)/C=C/c3sccc3Br)oc(=O)c12
IC50 [1]: 250 nM

Cc1csc2nc([C@H](C)NC(=O)/C=C/c3c(F)cccc3Cl)oc(=O)c12
IC50 [1]: 520 nM

Cc1csc2nc([C@H](C)NC(=O)/C=C/c3ccc(N(C)C)cc3)oc(=O)c12
IC50 [1]: 570 nM

Cc1csc2nc([C@H](C)NC(=O)/C=C/c3ccc(C=O)cc3)oc(=O)c12
IC50 [1]: 530 nM

Cc1csc2nc([C@H](C)NC(=O)/C=C/c3cccc(Cl)c3)oc(=O)c12
IC50 [1]: 980 nM

COc1cc(/C=C/C(=O)N[C@@H](C)c2nc3scc(C)c3c(=O)o2)cc(OC)c1
IC50 [1]: 350 nM

Cc1ccc(/C=C/C(=O)N[C@@H](C)c2nc3scc(C)c3c(=O)o2)s1
IC50 [1]: 650 nM

Cc1csc2nc([C@H](C)NC(=O)/C=C/c3ccc(O)cc3Cl)oc(=O)c12
IC50 [7]: 190 nM
IC50 [1]: 230 nM
CC50 [2]: 100000 nM
PC50 [9]: inactive
TC50 [5]: 56000 nM

Cc1ccccc1/C=C/C(=O)N[C@@H](C)c1nc2scc(C)c2c(=O)o1
IC50 [7]: 20000 nM
IC50 [1]: 1500 nM

Cc1csc2nc([C@H](C)NC(=O)/C=C/c3c(Cl)cccc3Cl)oc(=O)c12
IC50 [1]: 1970 nM
K obs / 1 [3]: 33000 M⁻¹ s⁻¹
K obs / 1 [6]: 33000 M⁻¹ s⁻¹

Cc1csc2nc([C@H](C)NC(=O)C=C(c3cccs3)c3cccs3)oc(=O)c12
IC50 [1]: 110 nM
CC50 [2]: 95000 nM
K obs / 1 [3]: 120000 M⁻¹ s⁻¹
PC50 [9]: inactive
TC50 [5]: 21000 nM

Cc1csc2nc([C@H](C)NC(=O)/C=C(\Sc3ccccc3)c3ccccc3)oc(=O)c12
IC50 [10]: 3100 nM
IC50 [11]: 1900 nM

CCOc1ccccc1/C=C/C(=O)N[C@@H](C)c1nc2scc(C)c2c(=O)o1
IC50 [1]: 560 nM

Cc1csc2nc([C@H](C)NC(=O)/C=C/c3ccc(Br)s3)oc(=O)c12
IC50 [1]: 270 nM
CC50 [2]: 83000 nM
K obs / 1 [3]: 12000 M⁻¹ s⁻¹
PC50 [4]: 8 µM
TC50 [5]: >250000 nM
K obs / 1 [6]: 63000 M⁻¹ s⁻¹

Cc1csc2nc([C@H](C)NC(=O)/C=C/c3cccn3C)oc(=O)c12
IC50 [1]: 1000 nM

Cc1csc2nc([C@H](C)NC(=O)/C=C/c3ccc([N+](=O)[O-])cc3)oc(=O)c12
IC50 [1]: 940 nM

Cc1csc2nc([C@H](C)NC(=O)/C=C/c3ccnc4ccccc34)oc(=O)c12
IC50 [1]: 250 nM
K obs / 1 [3]: 76000 M⁻¹ s⁻¹
K obs / 1 [6]: 45000 M⁻¹ s⁻¹

Cc1csc2nc([C@H](C)NC(=O)/C=C/c3ccccc3Br)oc(=O)c12
IC50 [1]: 480 nM

Cc1csc2nc([C@H](C)NC/C=C/c3ccccc3)oc(=O)c12
IC50 [12]: No inhibition
IC50 [13]: No inhibition
IC50 [14]: No inhibition
